The values that follow come from publication PMC6009898 (Journal of Enzyme Inhibition and Medicinal Chemistry, 2017).

Values joined by “and” are separate entries in the source; they are usually repeats but may differ in a detail not shown here. Equal entries are not always repeated.

For series [1], the target named is T1, AChE (from electric eel) (Electrophorus electricus, UniProt O42275).
T1 construct: Acetylcholinesterase (E.C. 3.1.1.7) from electric eel and human erythrocytes; purchased Sigma-Aldrich (St. Louis, MO); host or cells: electric eel (natural source)
T1 sequence (O42275 24-633): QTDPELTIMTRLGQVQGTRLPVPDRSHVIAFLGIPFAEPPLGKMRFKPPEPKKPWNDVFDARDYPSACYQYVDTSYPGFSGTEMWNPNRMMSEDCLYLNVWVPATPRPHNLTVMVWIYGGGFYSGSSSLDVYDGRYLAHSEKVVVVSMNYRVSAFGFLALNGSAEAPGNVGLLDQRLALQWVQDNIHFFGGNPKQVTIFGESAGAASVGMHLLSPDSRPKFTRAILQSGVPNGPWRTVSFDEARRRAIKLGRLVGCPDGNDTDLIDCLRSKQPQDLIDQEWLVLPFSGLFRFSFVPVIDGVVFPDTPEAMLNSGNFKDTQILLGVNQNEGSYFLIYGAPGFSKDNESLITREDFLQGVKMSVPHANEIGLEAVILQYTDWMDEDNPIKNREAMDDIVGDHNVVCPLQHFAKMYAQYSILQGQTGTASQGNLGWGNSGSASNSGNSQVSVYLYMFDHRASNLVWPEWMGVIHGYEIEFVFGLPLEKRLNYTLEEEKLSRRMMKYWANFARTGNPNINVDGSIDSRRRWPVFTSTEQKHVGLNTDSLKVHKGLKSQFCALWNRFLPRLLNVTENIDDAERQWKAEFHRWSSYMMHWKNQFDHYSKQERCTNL
Briefly: biochemical. The following applies: means ± SD of three experiments; read-out: IC50 eeAChE.

For series [2], the target named is T2, BuChE (from equine serum) (Equus caballus, UniProt P81908).
T2 construct: butyrylcholinesterase (BuChE, E.C. 3.1.1.8) from equine serum and human serum; purchased Sigma-Aldrich (St. Louis, MO); host or cells: equine serum
T2 sequence (P81908 whole entry): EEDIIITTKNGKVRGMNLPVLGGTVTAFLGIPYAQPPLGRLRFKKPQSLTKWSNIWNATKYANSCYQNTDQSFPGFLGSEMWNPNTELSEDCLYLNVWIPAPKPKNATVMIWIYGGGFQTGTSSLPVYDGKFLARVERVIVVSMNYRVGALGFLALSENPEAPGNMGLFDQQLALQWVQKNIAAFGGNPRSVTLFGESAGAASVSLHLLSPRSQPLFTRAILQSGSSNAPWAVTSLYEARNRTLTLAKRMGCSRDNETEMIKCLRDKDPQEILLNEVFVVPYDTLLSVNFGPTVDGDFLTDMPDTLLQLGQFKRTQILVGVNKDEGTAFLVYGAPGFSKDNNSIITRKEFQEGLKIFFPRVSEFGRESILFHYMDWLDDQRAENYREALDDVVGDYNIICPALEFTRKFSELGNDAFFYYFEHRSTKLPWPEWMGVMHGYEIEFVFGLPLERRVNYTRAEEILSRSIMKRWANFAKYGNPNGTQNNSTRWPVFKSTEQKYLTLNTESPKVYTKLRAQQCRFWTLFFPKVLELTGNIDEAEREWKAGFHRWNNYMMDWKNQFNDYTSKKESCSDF
Briefly: biochemical. In kind it is biochemical. The following applies: IC50 eqBuChE, means ± SD of three experiments.

In series [3] the target is T3, human AChE (Homo sapiens, UniProt P22303).
T3 construct: Acetylcholinesterase (E.C. 3.1.1.7) from electric eel and human erythrocytes; purchased Sigma-Aldrich (St. Louis, MO); host or cells: human erythrocytes
T3 sequence (P22303 other isoform, or with tags, fused parts or gaps): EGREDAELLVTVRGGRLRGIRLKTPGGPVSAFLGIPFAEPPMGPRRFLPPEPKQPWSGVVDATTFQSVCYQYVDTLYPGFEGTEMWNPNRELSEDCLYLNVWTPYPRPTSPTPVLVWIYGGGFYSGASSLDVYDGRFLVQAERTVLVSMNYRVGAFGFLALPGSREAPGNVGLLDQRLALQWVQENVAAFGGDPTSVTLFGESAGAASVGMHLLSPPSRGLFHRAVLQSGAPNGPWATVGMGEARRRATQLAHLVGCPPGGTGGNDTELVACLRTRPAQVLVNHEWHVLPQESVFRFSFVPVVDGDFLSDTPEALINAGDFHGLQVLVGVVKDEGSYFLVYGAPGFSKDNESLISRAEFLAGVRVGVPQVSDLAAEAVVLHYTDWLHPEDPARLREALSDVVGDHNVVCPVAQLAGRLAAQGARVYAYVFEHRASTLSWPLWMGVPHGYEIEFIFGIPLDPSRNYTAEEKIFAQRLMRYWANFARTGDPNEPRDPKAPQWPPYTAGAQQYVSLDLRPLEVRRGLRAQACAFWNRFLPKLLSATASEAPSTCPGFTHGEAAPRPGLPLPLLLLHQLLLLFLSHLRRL
Briefly: biochemical. The following applies: means ± SD of three experiments; read-out: IC50 hAChE.

Series [4] deals with T4, Aβ (1–42) (Homo sapiens, UniProt P05067). Briefly: Inhibition of Cu^2+-induced Aβ (1–42) aggregation (ThT assay). In kind it is biochemical. As to conditions: read-out: Inhibition of Cu^2+-induced Aβ aggregation. On the procedure: The mixture of the peptide (10 μL, 25 μM, final concentration) with or without copper (10 μL, 25 μM, final concentration) and the test compound (10 μL, 50 μM, final concentration) were incubated at 37 °C for 24 h. The 20 μL of the sample was diluted to a final volume of 200 μL with […] glycine–NaOH buffer (pH 8.0) containing ThT (5 μM). The detection method was the same as that of self-induced Aβ aggregation experiment.
T4 sequence (P05067 672-713): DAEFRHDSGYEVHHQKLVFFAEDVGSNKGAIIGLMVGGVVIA

Series [5] deals with PC12 cells. Briefly: Cytotoxicity in PC12 cells (MTT assay). It counts as cell-based. As to conditions: 3–50 μM, 24 h. On the procedure: The toxicity effect of the tested compounds on the rat pheochromocytoma (PC12) cells was examined according to previously reported methods. PC 12 cells was obtained from the Cell Bank of the Chinese Academy of Sciences (Shanghai, China) and routinely grown at 37 °C in a humidified incubator with 5% CO2 in Dulbecco’s modified Eagle’s medium (DMEM) supplemented with 10% bovine calf serum, 100 units per mL penicillin, and 100 units per mL of streptomycin. Cells were sub-cultured in 96-well plates at a seeding density of 5000 cells per well and allowed to adhere and grow. When cells reached the required confluence, they were placed into serum-free medium and treated with compound 5l. Twenty-four hours later the survival of cells was determined by MTT assay. Briefly, after incubation with 20 μL of MTT at 37 °C for 4 h, living cells containing MTT formazan crystals were solubilized in 200 μL DMSO. The absorbance of each well was measured using a microculture plate reader with a test wavelength of 570 nm and a reference wavelength of 630 nm. Results are expressed as the mean ± SD of three independent experiments.

Series [6] relates to PC12 cells. Briefly: Neuroprotection against Aβ (1–42)-induced toxicity in PC12 cells (MTT assay). It counts as cell-based. As to conditions: Rattus norvegicus, PC-12, Aβ (1–42) 25 μM, 24 h, Aβ alone 44.2%, read-out: Cell viability (% of control) with Aβ (1–42). How it is done:
PC 12 cells were grown in RPMI-1640 medium containing 10% (v/v) foetal bovine serum, 100 U penicillin/mL and […] streptomycin/mL under 5% CO2 at 37 °C. The culture media were changed every other day. After pretreatment with different concentrations of test compound (0, 6, 12.5, 25, 50 μM) for 2 h, PC 12 cells were incubated with 25 μM of Aβ (1–42) for 24 h. The cell viability was evaluated using MTT assay. Briefly, the cells were treated with 10 μL MTT (5 mg/mL in PBS) for 4 h at 37 °C. Then, 200 μL of DMSO was added to dissolve the dark blue formazan crystals formed in intact cells, and the absorbance at 570 nm was detected by a microplate reader. PC12 cells were cultured without test compound or Aβ (1–42) as control group and the results were expressed by percentage of control.

Series [7] in a line: in vitro. More on the design: Papp at 16 h: dose or concentration left out as unconfirmed. As to conditions: for Papp at 16 h: PAMPA. How it is done: Commercial drugs were purchased from Sigma (St. Louis, MO) and Alfa Aesar (Haverhill, MA). The porcine brain lipid (PBL) was obtained from Avanti Polar Lipids (Alabaster, AL). The donor microplate (PVDF membrane, pore size […]) and the acceptor microplate were both from Millipore (Darmstadt, Germany). The 96-well UV plate (COSTAR^@) was from Corning Incorporated (Harrodsburg, KY). The acceptor 96-well microplate was filled with 300 μL of PBS/EtOH (7:3), and the filter membrane was impregnated with 4 μL of PBL in dodecane (20 mg/mL). […] The […] was carefully placed on the donor plate to form a sandwich, which was left undisturbed for 16 h at 25 °C. After incubation, the donor plate was carefully removed and the concentration of compound in the acceptor wells was determined using an UV plate reader (Flexstation^@ 3). Every sample was analyzed at five wavelengths, in four wells, in at least three independent runs, and the results are given as the mean ± SD. In each experiment, nine quality control standards of known BBB permeability were included to validate the analysis set.

The target of series [8] is brain AChE (Mus musculus, UniProt P21836). The following applies: mice, 10 μmol/kg i.p., sacrificed 10 min after administration.
brain AChE, sequence (P21836 32-614): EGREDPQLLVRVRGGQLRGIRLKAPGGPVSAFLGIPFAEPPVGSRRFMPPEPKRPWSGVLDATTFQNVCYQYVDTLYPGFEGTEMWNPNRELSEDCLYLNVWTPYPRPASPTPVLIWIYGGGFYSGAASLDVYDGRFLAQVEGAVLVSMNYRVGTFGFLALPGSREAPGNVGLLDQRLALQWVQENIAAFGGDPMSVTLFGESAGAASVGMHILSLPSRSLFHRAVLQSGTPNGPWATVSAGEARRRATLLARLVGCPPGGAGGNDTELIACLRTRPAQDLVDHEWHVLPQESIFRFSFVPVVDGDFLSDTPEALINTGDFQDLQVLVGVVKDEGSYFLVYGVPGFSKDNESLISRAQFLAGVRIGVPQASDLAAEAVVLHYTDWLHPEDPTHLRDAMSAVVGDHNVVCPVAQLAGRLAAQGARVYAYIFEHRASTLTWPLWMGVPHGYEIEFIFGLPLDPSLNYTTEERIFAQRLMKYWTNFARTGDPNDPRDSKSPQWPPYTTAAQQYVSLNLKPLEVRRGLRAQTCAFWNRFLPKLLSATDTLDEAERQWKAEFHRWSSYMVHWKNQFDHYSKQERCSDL
Series [9] addresses EeAChE (Electrophorus electricus, UniProt O42275). Briefly: Kinetic analysis of AChE inhibition (Lineweaver–Burk plots). As to conditions: 5l at 30.0, 15.0 and 7.5 nM.
Series [10] concerns the target T4, Aβ (1–42). The series can be described thus: Inhibition of Aβ (1–42) self-induced aggregation (Thioflavin T assay). The following applies: read-out: Aβ (1–42) aggregation inhibition (%).
The conditions of series [11]: PAMPA-BBB literature value; cited from earlier work.

EeAChE, sequence (O42275 24-633): as the sequence (O42275 24-633) above

Take `COc1ccc(/C=C/C(=O)Nc2cc[n+](Cc3ccc(F)cc3)cc2)cc1OC.[Br-]` [Compound 5l, (E)-4-(3-(3,4-dimethoxyphenyl)acrylamido)-1-(4-fluorobenzyl) pyridin-1-ium bromide]: the “ABTS assay (trolox equiv)” value was “N (N means <0.05)”. For the same compound, the IC50 in series [1] worked out at 12.1 ± 1.8 nM. The IC50 in series [2] was 2500 nM and 2600 nM. Also, in series [3], the IC50 was determined as 8.6 ± 0.9 nM. Besides, the inhibition at 50 µM in series [4] amounted to 68.6%. Moreover, the “Effect on cell viability (toxicity)” value in [5] is on record as “did not significantly affect cell viability”. The viability at 6 µM in series [6] (6 μM compound) is 47.6 ± 4.2%. In series [6] (12.5 μM compound), the viability at 12.5 µM stood at 57.5 ± 1.4%. For the same compound, the viability at 25 µM in series [6] (25 μM compound) turned out to be 63.2 ± 3.5%. Moreover, the viability at 50 µM in [6] (50 μM compound) worked out at 66.6 ± 2.5%. Also, the Papp at 16 h in series [7] was determined as 2.89 ± 0.37 ×10⁻⁶ cm/s. In addition, the “BBB permeation prediction class” value in series [7] (PAMPA-BBB) is “CNS+”. Further, the “Inhibition (%) of brain AChE activity versus untreated controls” value in series [8] is 53.9 ± 2.9%. For the same compound, in series [9], the “Type of AChE inhibition” value is recorded as “mixed-type inhibitor”. Also, the inhibition at 20 µM in series [10] came out at 64.7 ± 1.6%.
`NCCc1ccc(O)c(O)c1` [Dopamine, reference compound] gave a Papp at 16 h in series [7] of 0.17 ×10⁻⁶ cm/s. The “Permeability Pe, Bibl” value in series [11] is 2e-07 cm/s.
